Experimental data taken from patent publication US10047076B2, “Halogen-substituted compounds” (BAYER CROPSCIENCE AKTIENGESELLSCHAFT, priority 2014, dated 2018).

Legend:
[1] = log P determination by HPLC on reversed-phase column (C18), EEC Directive 79/831 Annex V.A8, acidic (formic acid); format: physicochemical; details: HPLC method a), acetonitrile/water with formic acid
Procedure: ^1 The stated mass is the peak of the isotope pattern of the [M+H]^+ ion of the highest intensity; if the [M-H]^- ion was detected, the stated mass is identified with ^2. ^2 The stated mass is the peak of the isotope pattern of the [M-H]^- ion of the highest intensity. ^a) Note regarding the determination of the log P values and mass detection: The determination of the given log P values was carried out in accordance with EEC Directive 79/831 Annex V.A8 by HPLC (High Performance Liquid Chromatography) on a reversed-phase column (C18). […] Mass detection is effected by means of an […] system. ^b) Note regarding the determination of the retention time and mass detection: The stated retention times were determined on a reversed-phase column (C18) Shimadzu LCMS 2020; 50*3.0 Shimadzu shim-pack XR-ODS 2.2 micron; mobile phase A: water (0.05% TFA); mobile phase B: acetonitrile; linear gradient from 5% acetonitrile to 95% acetonitrile in 6.00 min, then 95% acetonitrile for a further 1.1 min; oven temperature 40° C.; flow rate: 1.0 ml/min. ^c) Note regarding the determination of the retention time and mass detection: Instrument: Waters ACQUITY SQD UPLC system; column. Waters Acquity UPLC HSS T3 1.8μ 50×1 mm; mobile phase A: 1 l of water+0.25 ml of 99% strength formic acid, mobile phase B: 1 l of acetonitrile+0.25 ml of 99% strength formic acid; gradient: 0.0 min 90% A→1.2 min 5% A→2.0 min 5% A oven: 50° C.; flow rate: 0.40 ml/min; UV detection: 208-400 nm. ^d) Note regarding the determination of the retention time and mass detection: […] The determination of the given log P values was carried out in accordance with EEC Directive 79/831 Annex V.A8 by HPLC (High Performance Liquid Chromatography) on a reversed-phase column (C18). […] Mass detection is effected by means of an […] system.

[2] = tested on: Phaedon cochleariae; experiment: Phaedon cochleariae spray test; details: larvae on Chinese cabbage leaf discs, after 7 days
[3] = tested on: Spodoptera frugiperda; experiment: Spodoptera frugiperda spray test; format: in vivo; details: 500 g/ha, caterpillars on maize leaf discs, after 7 days
Description: Solvent: 78.0 parts by weight of acetone

Row | SMILES | logP [1] | other results
1 | CCn1nc(-c2c(C(F)(F)F)c(C(F)(F)C(F)(F)F)nn2C)nc1-c1ccc(Cl)c(C(=O)Nc2ccccc2)c1 [Ibh-13] | 4.73 | 
2 | Cn1nc(C(F)(F)C(F)(F)F)c(C(F)(F)F)c1-c1nnc(-c2cccc(C(=O)NC3CC3)c2)s1 [Iaj-1, N-cyclopropyl-3-{5-[1-methyl-3-(pentafluoroethyl)-4-(trifluoromethyl)-1H-pyrazol-5-yl]-1,3,4-thiadiazol-2-yl}benzamide] |  | chromatographic logP [1]: 3.72; efficacy ([2]; 500 g/ha): 100%
3 | CC(C)n1nc(-c2ccc(Cl)c(C(=O)NC3CC3)c2)nc1-c1c(C(F)(F)F)c(C(F)(F)C(F)(F)F)nn1C [Ibg-13] | 4.35 | efficacy ([2]; 500 g/ha): 100%
4 | Cn1nc(C(F)(F)C(F)(F)F)c(C(F)(F)F)c1-c1ncc(-c2cccc(C(N)=O)c2)s1 [Iaq-2] | 3.38 | 
5 | Cn1nc(-c2c(C(F)(F)F)c(C(F)(F)C(F)(F)F)nn2C)nc1-c1ccc(Cl)c(C(=O)Nc2ccccc2)c1 [Ibh-14] | 4.42 | 
6 | Cn1nc(C(F)(F)C(F)(F)F)c(C(F)(F)F)c1-c1nc(-c2ccc(Cl)c(C(=O)NCc3ccccc3)c2)ns1 [Ibd-1] | 5.00 | 
7 | Cn1nc(C(F)(F)C(F)(F)F)c(C(F)(F)F)c1-c1nc(-c2cccc(C(=O)NC3CC3)c2)n[nH]1 [Ibg-2] | 3.24 | 
8 | CC(C)n1nc(-c2c(C(F)(F)F)c(C(F)(F)C(F)(F)F)nn2C)nc1-c1ccc(Cl)c(C(=O)NCc2ccccc2)c1 [Ibh-9] | 4.98 | 
9 | Cn1nc(-c2c(C(F)(F)F)c(C(F)(F)C(F)(F)F)nn2C)nc1-c1ccc(Cl)c(C(=O)NC2CC2)c1 [Ibh-8] | 3.67 | efficacy [3]: 83%; efficacy ([2]; 500 g/ha): 100%
10 | Cn1nc(C(F)(F)C(F)(F)F)c(C(F)(F)F)c1-c1ncc(-c2cccc(C(=O)NC3(C#N)CC3)c2)s1 [Iaq-1, N-(1-cyanocyclopropyl)-3-{2-[1-methyl-3-(pentafluoroethyl)-4-(trifluoromethyl)-1H-pyrazol-5-yl]-1,3-thiazol-5-yl}benzamide] |  | chromatographic logP [1]: 3.93; efficacy ([2]; 100 g/ha): 100%
11 | CC(C)n1nc(-c2c(C(F)(F)F)c(C(F)(F)C(F)(F)F)nn2C)nc1-c1ccc(Cl)c(C(=O)NC2CC2)c1 [Ibh-6] | 4.39 | efficacy ([2]; 500 g/ha): 100%
12 | CN(C(=O)c1cccc(-c2cc(-c3c(C(F)(F)F)c(C(F)(F)C(F)(F)F)nn3C)nn2C)c1)C1CC1 [Iax-1, N-cyclopropyl-3-[1,2′-dimethyl-5′-(pentafluoroethyl)-4′-(trifluoromethyl)-1H,2′H-3,3′-bipyrazol-5-yl]-N-methylbenzamide] |  | chromatographic logP [1]: 4.13; efficacy ([2]; 100 g/ha): 100%
13 | CCn1nc(-c2ccc(Cl)c(C(=O)NCC(F)(F)F)c2)nc1-c1c(C(F)(F)F)c(C(F)(F)C(F)(F)F)nn1C [Ibg-6] | 4.41 | 
14 | Cn1nc(C(F)(F)C(F)(F)F)c(C(F)(F)F)c1-c1nc(-c2cccc(C(=O)NCC(F)(F)F)c2)n[nH]1 [Ibg-3] | 3.54 | 
15 | Cn1nc(-c2ccc(Cl)c(C(=O)NCc3ccccc3)c2)nc1-c1c(C(F)(F)F)c(C(F)(F)C(F)(F)F)nn1C [Ibg-10] | 4.43 | 
16 | Cn1nc(-c2ccc(Cl)c(C(=O)Nc3ccccc3)c2)nc1-c1c(C(F)(F)F)c(C(F)(F)C(F)(F)F)nn1C [Ibg-14] | 4.56 | 
17 | Cn1nc(C(F)(F)C(F)(F)F)c(C(F)(F)F)c1-c1noc(-c2ccc(Cl)c(C(=O)NC3CC3)c2)n1 [Ibe-1, 2-chloro-N-cyclopropyl-5-{3-[1-methyl-3-(pentafluoroethyl)-4-(trifluoromethyl)-1H-pyrazol-5-yl]-1,2,4-oxadiazol-5-yl}benzamide] |  | chromatographic logP [1]: 4.16; efficacy [3]: 100%; efficacy ([2]; 500 g/ha): 100%
18 | Cn1nc(C(F)(F)C(F)(F)F)c(C(F)(F)F)c1-c1nc(-c2ccc(Cl)c(C(=O)NC3CC3)c2)ns1 [Ibd-3, 2-chloro-N-cyclopropyl-5-{5-[1-methyl-3-(pentafluoroethyl)-4-(trifluoromethyl)-1H-pyrazol-5-yl]-1,2,4-thiadiazol-3-yl}benzamide] |  | efficacy ([2]; 500 g/ha): 100%
19 | Cn1nc(C(F)(F)C(F)(F)F)c(C(F)(F)F)c1-c1noc(-c2ccc(Cl)c(C(=O)Nc3ccc(F)cc3)c2)n1 [Ibe-3] | 4.91 | efficacy ([2]; 500 g/ha): 100%
20 | CC(C)n1nc(-c2ccc(Cl)c(C(=O)Nc3ccccc3)c2)nc1-c1c(C(F)(F)F)c(C(F)(F)C(F)(F)F)nn1C [Ibg-11] | 5.13 | 
21 | Cn1nc(C(F)(F)C(F)(F)F)c(C(F)(F)F)c1-c1cc(-c2ccc(Cl)c(C(=O)NCC(=O)NCC(F)(F)F)c2)no1 [Iap-6] | 3.87 | efficacy ([2]; 100 g/ha): 100%

Row | SMILES | logP [1] | other results
22 | CCn1nc(-c2c(C(F)(F)F)c(C(F)(F)C(F)(F)F)nn2C)nc1-c1ccc(Cl)c(C(=O)NCC(F)(F)F)c1 [Ibh-5] | 4.32 | efficacy ([2]; 500 g/ha): 100%
23 | CCn1nc(-c2ccc(Cl)c(C(=O)NCc3ccccc3)c2)nc1-c1c(C(F)(F)F)c(C(F)(F)C(F)(F)F)nn1C [Ibg-9] | 4.71 | efficacy ([2]; 500 g/ha): 100%
24 | CC(C)n1nc(-c2c(C(F)(F)F)c(C(F)(F)C(F)(F)F)nn2C)nc1-c1ccc(Cl)c(C(=O)NCC(F)(F)F)c1 [Ibh-7] | 4.68 | 
25 | Cn1nc(C(F)(F)C(F)(F)F)c(C(F)(F)F)c1-c1nnc(-c2ccc(Cl)c(C(=O)NC3CC3)c2)[nH]1 [Ibi-3] | 3.40 | 
26 | Cn1nc(-c2c(C(F)(F)F)c(C(F)(F)C(F)(F)F)nn2C)nc1-c1ccc(Cl)c(C(=O)NCc2ccccc2)c1 [Ibh-11] | 4.29 | 
27 | Cn1nc(C(F)(F)C(F)(F)F)c(C(F)(F)F)c1-c1nnc(-c2ccc(Cl)c(C(=O)NCC(F)(F)F)c2)[nH]1 [Ibi-2] | 3.73 | 
28 | CN(C(=O)c1cccc(-c2cc(-c3c(C(F)(F)F)c(C(F)(F)C(F)(F)F)nn3C)n(C)n2)c1)C1CC1 [Iaw-1, N-cyclopropyl-3-[2,2′-dimethyl-5′-(pentafluoroethyl)-4′-(trifluoromethyl)-2H,2′H-3,3′-bipyrazol-5-yl]-N-methylbenzamide] |  | chromatographic logP [1]: 3.94
29 | CCn1nc(-c2c(C(F)(F)F)c(C(F)(F)C(F)(F)F)nn2C)nc1-c1ccc(Cl)c(C(=O)NCc2ccccc2)c1 [Ibh-10] | 4.59 | 
30 | Cn1nc(C(F)(F)C(F)(F)F)c(C(F)(F)F)c1-c1nnc(-c2ccc(Cl)c(C(=O)Nc3ccccc3)c2)[nH]1 [Ibi-4] | 4.13 | 
31 | Cn1nc(-c2ccc(Cl)c(C(=O)NCC(F)(F)F)c2)nc1-c1c(C(F)(F)F)c(C(F)(F)C(F)(F)F)nn1C [Ibg-4] | 4.14 | 
32 | CCn1nc(-c2ccc(Cl)c(C(=O)Nc3ccccc3)c2)nc1-c1c(C(F)(F)F)c(C(F)(F)C(F)(F)F)nn1C [Ibg-12] | 4.85 | 
33 | CC(C)n1nc(-c2c(C(F)(F)F)c(C(F)(F)C(F)(F)F)nn2C)nc1-c1ccc(Cl)c(C(=O)Nc2ccccc2)c1 [Ibh-12] | 5.23 | 
34 | Cn1nc(-c2cccc(C(=O)NCc3ccccc3)c2)nc1-c1c(C(F)(F)F)c(C(F)(F)C(F)(F)F)nn1C [Ibg-15, N-benzyl-3-{1-methyl-5-[1-methyl-3-(pentafluoroethyl)-4-(trifluoromethyl)-1H-pyrazol-5-yl]-1H-1,2,4-triazol-3-yl}benzamide] |  | chromatographic logP [1]: 4.24
35 | Cn1nc(-c2c(C(F)(F)F)c(C(F)(F)C(F)(F)F)nn2C)nc1-c1cccc(C(=O)NCc2ccccc2)c1 [Ibh-2, N-benzyl-3-{1-methyl-3-[1-methyl-3-(pentafluoroethyl)-4-(trifluoromethyl)-1H-pyrazol-5-yl]-1H-1,2,4-triazol-5-yl}benzamide] |  | chromatographic logP [1]: 4.16
36 | Cn1nc(C(F)(F)C(F)(F)F)c(C(F)(F)F)c1-c1nnc(-c2ccc(Cl)c(C(=O)NCc3ccccc3)c2)[nH]1 [Ibi-1] | 4.00 | 
37 | Cn1nc(C(F)(F)C(F)(F)F)c(C(F)(F)F)c1-c1noc(-c2ccc(Cl)c(C(=O)NCc3ccccc3)c2)n1 [Ibe-2] | 4.76 | 
38 | Cn1nc(C(F)(F)C(F)(F)F)c(C(F)(F)F)c1-c1nc(-c2ccc(Cl)c(C(=O)Nc3ccc(F)cc3)c2)ns1 [Ibd-2] | 5.17 | 
39 | CC(C)n1nc(-c2ccc(Cl)c(C(=O)NCc3ccccc3)c2)nc1-c1c(C(F)(F)F)c(C(F)(F)C(F)(F)F)nn1C [Ibg-8] | 4.93 | efficacy ([2]; 500 g/ha): 100%
40 | Cn1nc(C(F)(F)C(F)(F)F)c(C(F)(F)F)c1-c1nc(-c2cccc(C(=O)NCc3ccccc3)c2)n[nH]1 [Ibg-1, N-benzyl-3-{5-[1-methyl-3-(pentafluoroethyl)-4-(trifluoromethyl)-1H-pyrazol-5-yl]-1H-1,2,4-triazol-3-yl}benzamide] |  | chromatographic logP [1]: 3.8
41 | Cn1nc(-c2ccc(Cl)c(C(=O)NC3CC3)c2)nc1-c1c(C(F)(F)F)c(C(F)(F)C(F)(F)F)nn1C [Ibg-7] | 3.80 | efficacy ([2]; 500 g/ha): 100%
